# According to patent US10004222B2, “Small molecule ice recrystallization inhibitors and methods of use thereof” (THE UNIVERSITY OF OTTAWA, priority 2012, dated 2018):
# Where two headings read alike, the source gives them in different places. Non-standard residues stand in square brackets, D forms with d. Residues, ends and D or L forms follow the SMILES beside them. *: point of attachment. X1 = O=C(C[C@H]1OC(CO)[C@H](O)[C@H](O)C1O)*; Orn = NCCC[C@H](N)C(=O)O
# Assays:
# [1] = splat cooling ice recrystallization inhibition (IRI) assay; details: 0.5 mM
# Method: In this assay, the area of ice crystals are measured after a 30 minute annealing time at −6.4° C. and compared to a positive control for ice recrystallization resulting in a quantitative measurement of the mean ice grain size. For a positive control, a phosphate buffered saline (PBS) solution was utilized. All samples were normalized to the PBS positive control. The ice recrystallization inhibition activity of the carbohydrate-based non-ionic surfactants n-octyl-β-D-glucopyranoside (compound 3) and n-octyl-β-D-galactopyranoside (compound 4) is shown in FIG. 1.
# In this assay, the area of ice crystals are measured after a 30 minute annealing time at −6.4° C. and compared to a positive control for ice recrystallization resulting in a quantitative measurement of the mean ice grain size. For a positive control, a PBS solution was utilized. All samples were normalized to the PBS positive control.
# N-aryl-D-gluconamides (3a), (2a), (4a), and (1b) are a class of low molecular weight carbohydrate-based compounds. The ice recrystallization inhibition activity of (3a), (2a), (4a), and (1b) was assessed using a “splat cooling” assay. In this assay, the area of ice crystals are measured after a 30 minutes annealing time at −6.4° C. and compared to a positive control for ice recrystallization resulting in a quantitative measurement of the mean ice grain size. For a positive control, PBS was utilized. All samples were normalized to the PBS positive control.
# [2] = thermal hysteresis (TH) activity and dynamic ice shaping, Clifton Nanoliter Osmometer; details: 0.01 mg/mL
# Method: As both compound 4 (at 22 mM) and compound 5 (at 0.5 mM) are novel potent low molecular weight inhibitors of ice recrystallization, whether they were interacting directly with the ice lattice was investigated. Carbohydrate derivatives (compounds 3-6) were examined for TH activity using a Clifton Nanoliter Osmometer. See Tam, R. et al. (2009) “Solution Conformation of C-Linked Antifreeze Glycoprotein Analogues and Modulation of Ice Recrystallization” J. Am. Chem. Soc. 131:15747-15753; Tam, R. et al. (2008) “Hydration Index—A Better Parameter for Explaining Small Molecule Hydration in Inhibition of Ice Recrystallization” J. Am. Chem. Soc. 130: 17494-17501.
# In this assay a single droplet of the sample in water was suspended in the center of an oil-filled well in a sample holder plate. The sample was then rapidly frozen using a thermoelectrically controlled microscope stage, then the temperature was raised and the sample melted until only a single ice crystal remained. Once a single ice crystal was obtained, its growth and behavior upon increasing/decreasing the temperature was viewed under a microscope.
# The above synthesized C-linked AFGP analogues and carbohydrate derivatives were assessed for TH activity at 10 mg/mL. Compounds 3-6 could not be assessed for TH activity at this concentration due to their amphiphilic nature. […]
# [3] = solubility and gelation in water, PBS; assay type: physicochemical
# [4] = previously demonstrated; cited from earlier work
# [5] = previously demonstrated; cited from earlier work; remark: listed apart in the source
# [6] = system: human embryonic liver cells; details: compared with DMSO; cited from earlier work
Structure (SMILES),ice recrystallization inhibition activity [1],dynamic ice shaping [2],solubility [3],ice recrystallization inhibition activity [4],TH activity [5],cryoprotective ability [6]
"CCCCCCCCNC(=O)[C@H](O)[C@@H](O)[C@@H](O)[C@H](O)CO [compound 6, N-octyl-D-galactonamide]",only moderate,do not exhibit this activity,poor solubilities,–,–,–
N[C@@H](CC[C@H]1OC(CO)[C@H](O)[C@H](O)C1O)C(=O)NCC(=O)NCC(=O)N[C@@H](CC[C@H]1OC(CO)[C@H](O)[C@H](O)C1O)C(=O)NCC(=O)NCC(=O)N[C@@H](CC[C@H]1OC(CO)[C@H](O)[C@H](O)C1O)C(=O)NCC(=O)NCC(=O)N[C@@H](CC[C@H]1OC(CO)[C@H](O)[C@H](O)C1O)C(=O)NCC(=O)NCC(=O)NCC(=O)O (some centres unmarked) [analog 2],–,–,–,potent inhibitors of ice recrystallization,do not exhibit TH activity,–
"CCCCCCCCNC(=O)[C@H](O)[C@@H](O)[C@H](O)[C@H](O)CO [compound 5, N-octyl-D-gluconamide]",potent,do not exhibit this activity,poor solubilities,–,–,–
N[C@@H](CCCNC(=O)C[C@H]1OC(CO)[C@H](O)[C@H](O)C1O)C(=O)NCC(=O)NCC(=O)N[C@@H](CCCNC(=O)C[C@H]1OC(CO)[C@H](O)[C@H](O)C1O)C(=O)NCC(=O)NCC(=O)N[C@@H](CCCNC(=O)C[C@H]1OC(CO)[C@H](O)[C@H](O)C1O)C(=O)NCC(=O)NCC(=O)N[C@@H](CCCNC(=O)C[C@H]1OC(CO)[C@H](O)[C@H](O)C1O)C(=O)NCC(=O)NCC(=O)NCC(=O)O (some centres unmarked) [analog 1] (H-[Orn](X1)GG[Orn](X1)GG[Orn](X1)GG[Orn](X1)GGG-OH),–,–,–,potent inhibitors of ice recrystallization,do not exhibit TH activity,as effective as a 2.5% solution of DMSO
